The assay deals with T1, human factor Xa (Homo sapiens, UniProt P00742).
T1 construct: human factor Xa (Enzyme Research Laboratories, Inc; South Bend, Ind.); purchased Enzyme Research Laboratories, Inc; South Bend, Ind
T1 sequence (P00742 235-488 limits assumed): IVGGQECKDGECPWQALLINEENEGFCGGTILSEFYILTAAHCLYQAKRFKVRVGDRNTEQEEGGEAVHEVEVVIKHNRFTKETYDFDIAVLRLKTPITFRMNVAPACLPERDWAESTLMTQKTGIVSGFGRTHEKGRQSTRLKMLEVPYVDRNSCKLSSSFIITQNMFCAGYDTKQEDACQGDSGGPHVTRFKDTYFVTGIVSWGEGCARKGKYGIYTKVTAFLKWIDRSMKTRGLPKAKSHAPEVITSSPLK
T1 sequence (P00742 41-179 partner limits assumed): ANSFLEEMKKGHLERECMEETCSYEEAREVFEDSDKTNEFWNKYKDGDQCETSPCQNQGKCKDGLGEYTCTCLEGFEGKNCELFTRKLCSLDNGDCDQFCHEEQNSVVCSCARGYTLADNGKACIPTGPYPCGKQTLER
Kind of assay: Factor Xa assay (chromogenic, substrate S-2765). The class given is biochemical. The following applies: read-out: Ki(FXa). An outline of the steps: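 Purified human factor Xa (0.5 nM final) in TBS-PEG was preincubated 10 min with compound in DMSO-containing buffer. The reaction was started with chromogenic substrate S-2765 at 140 μM. IC50 was taken from the concentration series.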
`CC(C)N1CCC(NC(=O)c2nc3ccccc3n2CC(=O)Nc2ccc(Cl)cc2)CC1` [Example 2, 1-[(4-Chloro-phenylcarbamoyl)-methyl]-1H-benzoimidazole-2-carboxylic acid (1-isopropyl-piperidin-4-yl)-amide]: the Ki (in general, the dissociation constant of the complex between target and ligand, obtained from inhibition or displacement) came to 3.1 nM.

As for `CC(C)N1CCC(NC(=O)c2nc3ccc(S(=O)(=O)CCO)cc3n2Cc2cc(-c3ccc(Cl)s3)on2)CC1` [Example 29b, 1-[5-(5-Chloro-thiophen-2-yl)-isoxazol-3-ylmethyl]-6-(2-hydroxy-ethanesulfonyl)-1H-benzoimidazole-2-carboxylic acid (1-isopropyl-piperidin-4-yl)-amide], the inhibition constant Ki came to 11.5 nM.

`CC(C)N1CCC(NC(=O)c2nc3c(C(=O)N4CCC(F)(F)CC4)cccc3n2CC(=O)Nc2ccc(Cl)cn2)CC1` [Example 76, 1-[(5-Chloro-pyridin-2-ylcarbamoyl)-methyl]-4-(4,4-difluoro-piperidine-1-carbonyl)-1H-benzoimidazole-2-carboxylic acid (1-isopropyl-piperidin-4-yl)-amide]: the inhibition constant Ki came out at 8.5 nM.

As for `CC(C)N1CCC(NC(=O)c2nc3cc(S(=O)(=O)CCO)ccc3n2Cc2cc(-c3ccc(Cl)s3)on2)CC1` [Example 29a, 1-[5-(5-Chloro-thiophen-2-yl)-isoxazol-3-ylmethyl]-5-(2-hydroxy-ethanesulfonyl)-1H-benzoimidazole-2-carboxylic acid (1-isopropyl-piperidin-4-yl)-amide], the Ki is 25.5 nM.

For `CC(OC(=O)OC1CCCCC1)OC(=O)c1cccc2c1nc(C(=O)NC1CCN(C(C)C)CC1)n2Cc1cc(-c2ccc(Cl)s2)on1` (stereo not drawn) [Example 21, 1-[5-(5-Chloro-thiophen-2-yl)-isoxazol-3-ylmethyl]-2-(1-isopropyl-piperidin-4-ylcarbamoyl)-1H-benzoimidazole-4-carboxylic acid 1-cyclohexyloxycarbonyloxy-ethyl ester], the Ki is 31 nM.

As to `CC(C)N1CCC(NC(=O)c2nc3c(C(=O)N4C(C)CCCC4C)cccc3n2CC(=O)Nc2ccc(Cl)cn2)CC1` (stereo not drawn) [Example 75, 1-[(5-Chloro-pyridin-2-ylcarbamoyl)-methyl]-4-(2,6-dimethyl-piperidine-1-carbonyl)-1H-benzoimidazole-2-carboxylic acid (1-isopropyl-piperidin-4-yl)-amide], the Ki was 2.6 nM.

`COC(=O)c1ccc2c(c1)nc(C(=O)NC1CCN(C(C)C)CC1)n2Cc1cc(-c2ccc(Cl)s2)on1` [Example 5a, 1-[5-(5-Chloro-thiophen-2-yl)-isoxazol-3-ylmethyl]-2-(1-isopropyl-piperidin-4-ylcarbamoyl)-1H-benzoimidazole-5-carboxylic acid methyl ester]: the Ki came to 2.5 nM.

In the case of `CC(C)N1CCC(NC(=O)c2nc3cc(C(=O)N(C)CCO)ccc3n2Cc2cc(-c3ccc(Cl)s3)on2)CC1` [Example 25, 1-[5-(5-Chloro-thiophen-2-yl)-isoxazol-3-ylmethyl]-1H-benzoimidazole-2,5-dicarboxylic acid 5-[(2-hydroxy-ethyl)-methyl-amide] 2-[(1-isopropyl-piperidin-4-yl)-amide]], the inhibition constant (Ki) turned out to be 65 nM.

As for `COCCOCc1cccc2c1nc(C(=O)NC1CCN(C(C)C)CC1)n2CC(=O)Nc1ccc(Cl)cn1` [Example 72, 1-[(5-Chloro-pyridin-2-ylcarbamoyl)-methyl]-4-(2-methoxy-ethoxymethyl)-1H-benzoimidazole-2-carboxylic acid (1-isopropyl-piperidin-4-yl)-amide], the Ki was 12.5 nM.
